Measured values reported in US20240350642A1, “SUSTAINED RELEASE DOSAGE FORMS FOR LOW SOLUBILITY COMPOUNDS AND METHODS FOR PREPARING OF THESE SUSTAINED RELEASE DOSAGE FORMS” (priority 2023, published 2024).
Entries after “also recorded” stand apart in the source; their conditions may differ.

How the values were obtained:
Format in all cases: physicochemical
[1] = Solubility of Ketoconazole in USP dissolution apparatus before and after adding HP-β-Cyclodextrin (experiment 13)
Description: FIGS. 5A and 5B refer to a method to determine the solubility of low soluble API and determination of the solubility enhancing effect of an API: Cyclodextrin complex. Accurately weighted amounts of the low soluble API, higher than its intrinsic solubility in the volume and pH of the aqueous media, is added to a defined volume into a vessel of the standard dissolution test apparatus 1 or 2 as defined in US Pharmacopeia (chapter <711> “Dissolution”) at pH conditions suitable for the API as explained above and at standard temperature conditions at the site of absorption e.g., 37° C. and paddle rotation of 50 rpm, with either water or standard aqueous media at pH 1, pH 2, water or buffer pH 6.8. It is to be assured by visual check that the API is not or not fully dissolved to ensure that the added amount is higher than the intrinsic solubility of the API. The dissolution of the API is checked for between 30 Min. and 3 hours, and the amount dissolved is measured with a suitable assay method like UV or HPLC and plotted against time. After the initial phase at least a 100-time overage of the desired complex forming Cyclodextrin, in a suitable complex forming ratio with the API, is added to the dissolution vessel and the dissolution determination is continued for up to 24 hours until the amount of dissolved API reaches a plateau. […]

[2] = Solubility of the API in aqueous media
Description: A different aqueous media may be selected if required for stability reasons of the API; e.g., decompensation of the at pH 6.8 or change of the polymorph of the API, e.g. salt formation of a base under low pH conditions and vis versa base formation of API with a strong acid at higher pH values. Preferably, aqueous conditions are selected to maintain an unchanged API polymorph. The amount dissolved is determined either by measuring the concentration at the defined time points and the amount dissolved is plotted versus time. The amount at each time point is determined by a suitable assay method, e.g., UV for API with sufficient extinction coefficient or HPLC with low extinction coefficient.

[3] = Solubility of Cannabidiol in USP dissolution apparatus before and after adding HP-β-Cyclodextrin (experiment 12)
Description: FIGS. 5A and 5B refer to a method to determine the solubility of low soluble API and determination of the solubility enhancing effect of an API: Cyclodextrin complex. Accurately weighted amounts of the low soluble API, higher than its intrinsic solubility in the volume and pH of the aqueous media, is added to a defined volume into a vessel of the standard dissolution test apparatus 1 or 2 as defined in US Pharmacopeia (chapter <711> “Dissolution”) at pH conditions suitable for the API as explained above and at standard temperature conditions at the site of absorption e.g., 37° C. and paddle rotation of 50 rpm, with either water or standard aqueous media at pH 1, pH 2, water or buffer pH 6.8. It is to be assured by visual check that the API is not or not fully dissolved to ensure that the added amount is higher than the intrinsic solubility of the API. The dissolution of the API is checked for between 30 Min. and 3 hours, and the amount dissolved is measured with a suitable assay method like UV or HPLC and plotted against time. […]
An accurately weighted amount of Cannabidiol was dissolved in ethanol resulting in a solution containing 5 mg/ml. […] The amount of dissolved CBD was monitored. […]

SMILES	solubility of Ketoconazole after overage of HP-β-Cyclodextrin ([1]; 500 ml aqueous media pH 6.8)	solubility of Ketoconazole before Cyclodextrin addition ([1]; 500 ml aqueous media pH 6.8, added as powder)	solubility in aqueous media (words) ([2]; pH 2)	solubility in aqueous media (words) ([2]; pH 6.8)	solubility of CBD after overage of HP-β-Cyclodextrin ([3]; 500 ml aqueous media pH 2)	solubility of CBD before Cyclodextrin addition ([3]; 500 ml aqueous media pH 2, added as solution in ethanol)	solubility in aqueous media (words) ([2]; any pH or pH not given)	solubility in aqueous media (words) ([2]; any pH or pH not given, listed as Cannabidiol)
CC(=O)N1CCN(c2ccc(OCC3COC(Cn4ccnc4)(c4ccc(Cl)cc4Cl)O3)cc2)CC1 (centres unmarked) [Ketoconazole]	significantly increased	visibly insoluble	low soluble	very insoluble; also recorded: less soluble; also recorded: very low soluble				
C=C(C)[C@@H]1CCC(C)=C[C@H]1c1c(O)cc(CCCCC)cc1O [CBD, Cannabidiol]					significantly increased	almost insoluble	very insoluble	insoluble
